Measurements taken from US10758512B2 (KOREA INSTITUTE OF SCIENCE AND TECHNOLOGY, priority 2016, dated 2020).

What was measured:
[1] = test system: DU145 cells; test: Cell viability of human prostate cell line (EZCytox); type: cell-based; details: 48 hours, relative to DMSO control (FIG. 4)
Method: With regard to the human prostate cancer cell line DU145 cultured and maintained in Experimental Example 1, the culture medium and prostate cell culture were mixed, and 1×10^4 cells were seeded in a 96-well plate, and then cultured for 24 hours under conditions of 5% carbon dioxide and 37° C.
After being stabilized, the cells were treated with only 0.2% dimethyl sulfoxide as a control group, treated with testosterone (100 ng/mL or 200 ng/mL) alone, or treated with testosterone and 10 μM finasteride as a positive control, or testosterone and 1 μM, 10 μM, or 20 μM fucoxanthin, and then cultured for 48 hours.
Thereafter, the media were collected for LC-MS/MS analysis, and then cell viability of prostate cells was measured in order to examine whether treatment of the compound influences growth of the prostate cells. The cell viability was determined by measuring absorbance at 450 nm after adding an EZCytox reagent (Daeil Lab Service, Korea) and culturing for 1-4 hours under conditions of 5% carbon dioxide and 37° C. The cell viability was calculated as a percentage relative to cell viability of the control group treated with dimethyl sulfoxide (DMSO) only.

[2] = test system: dihydrotestosterone production in prostate cell DU145; test: Dihydrotestosterone production-inhibitory activity in prostate cells (LC-MS/MS); type: cell-based, human; details: 48 hours
Method: CWR-22Rv1, LNCaP, DU145, and PC-3 cells which are human prostate cancer cell lines were cultured and maintained in an RPMI medium (Roswell Park Memorial Institute medium) supplemented with 10% heat-inactivated fetal bovine serum (FBS), 10 U/mL penicillin, and 100 μg/mL streptomycin under conditions of 5% carbon dioxide and 37° C. The internal standard compound was dissolved in dimethyl sulfoxide at a concentration of 10 μM, and 1 μL thereof was added to 150 μL of cell culture, and treated to a cartridge to perform sample pretreatment. […] Thereafter, re-solvation was performed by using 50% aqueous methanol, and products were kept frozen at −20° C. Mass spectrometry of the stored samples was performed by using an AB SCIEX API 4000 QTRAP tandem quadrupole mass spectrometer. HPLC system used herein was Agilent 1200 pump, and solvent A was water/acetonitrile (95:5 v/v, 0.1% formic acid), and solvent B was acetonitrile/water (95:5 v/v, 0.1% formic acid). For chromatography separation, a linear gradient from 40% B solvent to 100% B solvent in 8 minutes was used. An analysis column used herein was an XTerra MS C18 column (2.1 mm×150 mm, 3.5 μm) of Waters corporation, and analysis was performed while maintaining temperature at 25° C. and a flow rate of 0.2 mL/min. […]

Row | SMILES | cell viability of prostate cells ([1]; DU145, testosterone plus finasteride 10 μM) | dihydrotestosterone production ([2]; DU145, testosterone 100 ng/mL plus finasteride 10 μM, vs testosterone alone (FIG. 3)) | cell viability of prostate cells ([1]; DU145, testosterone plus fucoxanthin 1 μM, 10 μM or 20 μM) | dihydrotestosterone production ([2]; DU145, testosterone 100 ng/mL plus fucoxanthin 1 μM, 10 μM, 20 μM, vs testosterone alone, inhibition increased with concentration (FIG. 3))
1 | CC(C)(C)NC(=O)[C@H]1CC[C@H]2[C@@H]3CC[C@H]4NC(=O)C=C[C@]4(C)[C@H]3CC[C@]12C [finasteride] | did not influence cell viability | remarkably inhibited | – | –
2 | CC(=O)O[C@H]1CC(C)(C)C(=C=C/C(C)=C/C=C/C(C)=C/C=C/C=C(C)/C=C/C=C(\C)C(=O)C[C@@]23O[C@]2(C)C[C@@H](O)CC3(C)C)[C@](C)(O)C1 [fucoxanthin] | – | – | did not influence cell viability | remarkably inhibited
